The subject of the test is HCV replicon. Description: Replicon based assay of HCV replication inhibition (NPT ELISA). The class given is cell-based, Hepatitis C virus. The settings on record: Hepatitis C virus, replicon based assay of HCV replication inhibition; Table IV; read-out: Activity. In a few lines: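 NPT (neomycin phosphotransferase) content, proportional to replicon replication, quantified by capture ELISA on day four. Before that, replicon-bearing Huh-7 cells in G418-free screening medium were exposed three days at 37° C to compound, typically six doses from 10 to 0.03 micromolar, with equal DMSO across wells.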
`CCOC(=O)Cc1ccc(-c2csc(Nc3ccc(OCCCOc4ccccc4)cc3)n2)s1` [compound 931, ethyl 2-(5-(2-(4-(3-phenoxypropoxy)phenylamino)thiazol-4-yl)thiophen-2-yl)acetate]: the EC50 lay within 1 to 10 µM.
On to `CCOC(=O)Cc1ccc(-c2csc(Nc3ccc(OCCN(CC)c4ccccc4)c(C(F)(F)F)c3)n2)s1` [compound 932], for which the EC50 was in the range of 1 to 10 µM.
With `CCOC(=O)Cc1ccc(-c2csc(Nc3ccc(OCCOc4ccccc4)c(C(F)(F)F)c3)n2)s1` [compound 933, ethyl 2-(5-(2-(4-(2-phenoxyethoxy)-3-(trifluoromethyl)phenylamino)thiazol-4-yl)thiophen-2-yl)acetate], the EC50 is 1 to 10 µM.
The value for `CCOC(=O)Cc1ccc(-c2csc(Nc3ccc(OCCSc4ccccc4)c(C(F)(F)F)c3)n2)s1` [compound 934, ethyl 2-(5-(2-(4-(2-(phenylthio)ethoxy)-3-(trifluoromethyl)phenylamino)thiazol-4-yl)thiophen-2-yl)acetate] was 1 to 10 µM.
The value for `Cc1cccc(CCCCOc2ccc(Nc3nc(-c4cccnc4)cs3)cc2C(F)(F)F)c1` [compound 935, N-(4-(4-m-tolylbutoxy)-3-(trifluoromethyl)phenyl)-4-(pyridin-3-yl)thiazol-2-amine] was below 1 µM; that for `Cc1cc(Nc2nc(-c3cccnc3)cs2)ccc1OCCCCc1ccccc1` [compound 936, N-(4-(4-phenylbutoxy)-3-methylphenyl)-4-(pyridin-3-yl)thiazol-2-amine] was below 1 µM; that for `C#CCCOc1ccc(Nc2nc(-c3cccnc3)cs2)cc1C(F)(F)F` [compound 937, N-(4-(but-3-ynyloxy)-3-(trifluoromethyl)phenyl)-4-(pyridin-3-yl)thiazol-2-amine] was below 1 µM.
The value for `FC(F)(F)c1cc(Nc2nc(-c3cccnc3)cs2)ccc1CCCCCc1ccccc1` [compound 938, N-(3-(trifluoromethyl)-4-(5-phenylpentyl)phenyl)-4-(pyridin-3-yl)thiazol-2-amine] was below 1 µM.
As for `COc1ncc(-c2csc(Nc3ccc(CCCCCc4ccccc4)c(C(F)(F)F)c3)n2)cn1` [compound 939, N-(3-(trifluoromethyl)-4-(5-phenylpentyl)phenyl)-4-(2-methoxypyrimidin-5-yl)thiazol-2-amine], the EC50 is below 1 µM.
The value for `FC(F)(F)c1cc(Nc2nc(-c3cnccn3)cs2)ccc1OCCCCc1ccccc1` [compound 940, N-(4-(4-phenylbutoxy)-3-(trifluoromethyl)phenyl)-4-(pyrazin-2-yl)thiazol-2-amine] was below 1 µM; that for `FC(F)(F)c1cc(Nc2nc(-c3cnccn3)cs2)ccc1OCCCCc1cccs1` [compound 941, N-(4-(4-(thiophen-2-yl)butoxy)-3-(trifluoromethyl)phenyl)-4-(pyrazin-2-yl)thiazol-2-amine] was below 1 µM.
Regarding `O=C(O)Cc1ccc(-c2csc(Nc3ccc(OCCCc4ccco4)c(C(F)(F)F)c3)n2)s1` [compound 943, 2-(5-(2-(4-(3-(furan-2-yl)propoxy)-3-(trifluoromethyl)phenylamino)thiazol-4-yl)thiophen-2-yl)acetic acid], the EC50 was below 1 µM.
The value for `CCOC(=O)Cc1ccc(-c2csc(Nc3ccc(OCCCc4ccco4)c(C(F)(F)F)c3)n2)s1` [compound 944, ethyl 2-(5-(2-(4-(3-(furan-2-yl)propoxy)-3-(trifluoromethyl)phenylamino)thiazol-4-yl)thiophen-2-yl) acetate] was below 1 µM; that for `Fc1sc(Nc2ccc(OCCCC3CCCC3)c(C(F)(F)F)c2)nc1-c1cccnc1` [compound 945, N-(4-(3-cyclopentylpropoxy)-3-(trifluoromethyl)phenyl)-5-fluoro-4-(pyridin-3-yl)thiazol-2-amine] was below 1 µM; that for `CCCCCCCCOc1ccc(Nc2nc(-c3cnc(OC)nc3)c(F)s2)cc1C(F)(F)F` [compound 946, 5-fluoro-N-(3-(trifluoromethyl)-4-(octyloxy)phenyl)-4-(2-methoxypyrimidin-5-yl)thiazol-2-amine] was below 1 µM.
As for `Fc1ccc(CCCCOc2ccc(Nc3nc(-c4cccnc4)cs3)cc2C(F)(F)F)cc1` [compound 947, N-(4-(4-(4-fluorophenyl)butoxy)-3-(trifluoromethyl)phenyl)-4-(pyridin-3-yl)thiazol-2-amine], the EC50 is below 1 µM.
For `Cc1ccc(C#CCCOc2ccc(Nc3nc(-c4cccnc4)cs3)cc2C(F)(F)F)cc1` [compound 948, N-(4-(4-p-tolylbut-3-ynyloxy)-3-(trifluoromethyl)phenyl)-4-(pyridin-3-yl)thiazol-2-amine] the value was below 1 µM; for `Cc1cccc(C#CCCOc2ccc(Nc3nc(-c4cccnc4)cs3)cc2C(F)(F)F)c1` [compound 949, N-(4-(4-m-tolylbut-3-ynyloxy)-3-(trifluoromethyl)phenyl)-4-(pyridin-3-yl)thiazol-2-amine], below 1 µM.
With `CCCCCOc1ccc(Nc2nc(-c3cccnc3)c(F)s2)cc1C(F)(F)F` [compound 950, 5-fluoro-N-(3-(trifluoromethyl)-4-(pentyloxy)phenyl)-4-(pyridin-3-yl)thiazol-2-amine], the EC50 is below 1 µM.
The value for `CCCCCCCCS(=O)(=O)c1ccc(Nc2nc(-c3cccnc3)cs2)cc1` [compound 951, N-(4-(octylsulfonyl)phenyl)-4-(pyridin-3-yl)thiazol-2-amine] was below 1 µM.
The value for `CCCCCCCCS(=O)(=O)c1ccc(Nc2nc(-c3cccnc3)cs2)cc1C(F)(F)F` [compound 952, N-(3-(trifluoromethyl)-4-(octylsulfonyl)phenyl)-4-(pyridin-3-yl)thiazol-2-amine] was below 1 µM.
Turning to `CCCCCCCS(=O)(=O)CCc1ccc(Nc2nc(-c3cccnc3)cs2)cc1` [compound 953, N-(4-(2-(heptylsulfonyl)ethyl)phenyl)-4-(pyridin-3-yl)thiazol-2-amine], the EC50 was 1 to 10 µM.
